# Measured values as given in ChEMBL document CHEMBL5465560, “Selectivity Literature for EUbOPEN Chemogenomic Library” (2024).
# Key:
# [1] = target: MAP/microtubule affinity-regulating kinase 3 (Homo sapiens) (UniProt P27448); assay: Selectivity interaction (KinomeScan (DiscoverX)) EUB0000045b MARK3
# [2] = system: Tyrosine-protein kinase ABL1 (Homo sapiens), P00519 [F317L]; assay: Selectivity interaction (KinomeScan (DiscoverX)) EUB0000045b ABL1; conditions: at 10 µM
# [3] = target: T1, Serine/threonine-protein kinase D3 (Homo sapiens) (UniProt O94806); assay: Selectivity interaction (KinomeScan (DiscoverX)) EUB0000695a PRKD3; conditions: at 100 nM
# T1 sequence (whole entry): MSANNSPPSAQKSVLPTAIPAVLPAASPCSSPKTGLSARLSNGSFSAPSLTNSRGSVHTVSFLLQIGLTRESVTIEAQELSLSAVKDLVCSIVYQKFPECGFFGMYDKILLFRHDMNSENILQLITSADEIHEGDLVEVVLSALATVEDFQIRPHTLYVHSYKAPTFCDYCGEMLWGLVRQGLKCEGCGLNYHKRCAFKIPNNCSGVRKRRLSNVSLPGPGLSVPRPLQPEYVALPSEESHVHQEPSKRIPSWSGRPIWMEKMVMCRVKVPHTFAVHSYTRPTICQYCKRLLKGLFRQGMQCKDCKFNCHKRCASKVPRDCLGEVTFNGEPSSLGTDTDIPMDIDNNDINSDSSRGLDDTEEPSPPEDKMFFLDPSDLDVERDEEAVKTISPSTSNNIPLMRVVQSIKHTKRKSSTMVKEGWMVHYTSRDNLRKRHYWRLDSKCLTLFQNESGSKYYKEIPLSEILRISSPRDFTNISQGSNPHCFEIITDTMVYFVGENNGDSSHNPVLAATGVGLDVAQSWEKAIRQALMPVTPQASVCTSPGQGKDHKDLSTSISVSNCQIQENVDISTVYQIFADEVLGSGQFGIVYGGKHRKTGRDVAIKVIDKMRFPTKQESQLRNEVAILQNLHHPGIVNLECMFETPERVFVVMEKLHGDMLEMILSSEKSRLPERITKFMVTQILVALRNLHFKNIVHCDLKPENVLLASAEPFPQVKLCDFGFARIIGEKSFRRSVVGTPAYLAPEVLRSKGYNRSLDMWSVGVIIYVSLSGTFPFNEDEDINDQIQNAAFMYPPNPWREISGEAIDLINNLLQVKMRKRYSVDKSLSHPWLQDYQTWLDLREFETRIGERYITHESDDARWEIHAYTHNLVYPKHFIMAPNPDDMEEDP
# [4] = target: T2, Histone-arginine methyltransferase CARM1 (Homo sapiens, UniProt Q86X55); assay: Selectivity interaction (Western Blot (dimethylation of BAF155 (BAF155me2a/BAF155) in U266B1 cells)) EUB0000255b CARM1; type: cell-based, U-266
# T2 sequence (Q86X55 whole entry): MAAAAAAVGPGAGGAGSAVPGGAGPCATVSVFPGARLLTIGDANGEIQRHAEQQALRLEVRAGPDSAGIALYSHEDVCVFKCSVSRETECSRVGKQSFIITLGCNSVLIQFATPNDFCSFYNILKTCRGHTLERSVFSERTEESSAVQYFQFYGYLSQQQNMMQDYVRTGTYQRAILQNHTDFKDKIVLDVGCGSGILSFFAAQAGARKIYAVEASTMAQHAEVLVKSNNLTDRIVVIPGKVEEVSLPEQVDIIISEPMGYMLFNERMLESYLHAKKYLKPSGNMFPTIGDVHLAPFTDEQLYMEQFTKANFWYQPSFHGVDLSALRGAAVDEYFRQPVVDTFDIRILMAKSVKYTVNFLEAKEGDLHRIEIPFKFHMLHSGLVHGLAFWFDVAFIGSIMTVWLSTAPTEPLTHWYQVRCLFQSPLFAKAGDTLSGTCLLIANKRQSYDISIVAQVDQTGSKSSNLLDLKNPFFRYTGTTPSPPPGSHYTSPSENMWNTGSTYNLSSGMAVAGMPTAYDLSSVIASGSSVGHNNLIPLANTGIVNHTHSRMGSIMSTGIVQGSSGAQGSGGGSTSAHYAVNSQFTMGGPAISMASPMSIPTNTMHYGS
# [5] = target: Calcium/calmodulin-dependent protein kinase type 1G (Homo sapiens) (UniProt Q96NX5); assay: Selectivity interaction (KinomeScan (DiscoverX)) EUB0000607a CAMK1G; conditions: at 10 µM
# [6] = target: Calcium/calmodulin-dependent protein kinase type II subunit beta (Homo sapiens) (UniProt Q13554); assay: Selectivity interaction (ActivX KiNativ screen (kinase selectivity in THP-1 cell lysates)) EUB0000639a CAMK2B; type: subcellular; conditions: lysate, at 0.01 µM
# [7] = target: T3, Serine/threonine-protein kinase 17A (Homo sapiens) (UniProt Q9UEE5); assay: Selectivity interaction (Kinase panel (Invitrogen)) EUB0000639a STK17A; conditions: at 200 nM
# T3 sequence (whole entry): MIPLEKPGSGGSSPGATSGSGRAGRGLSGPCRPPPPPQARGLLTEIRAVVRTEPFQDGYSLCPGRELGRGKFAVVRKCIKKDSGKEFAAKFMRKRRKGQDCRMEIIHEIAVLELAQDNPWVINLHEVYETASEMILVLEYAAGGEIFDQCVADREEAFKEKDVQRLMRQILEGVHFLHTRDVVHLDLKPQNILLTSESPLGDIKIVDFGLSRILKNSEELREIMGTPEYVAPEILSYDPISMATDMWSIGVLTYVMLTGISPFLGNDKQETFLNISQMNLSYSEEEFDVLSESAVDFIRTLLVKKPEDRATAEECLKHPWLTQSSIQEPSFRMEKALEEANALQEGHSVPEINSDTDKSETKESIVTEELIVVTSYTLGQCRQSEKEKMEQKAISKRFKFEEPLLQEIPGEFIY
# [8] = target: Mitogen-activated protein kinase 7 (Homo sapiens) (UniProt Q13164); assay: Selectivity interaction (ActivX KiNativ screen (kinase selectivity in THP-1 cell lysates)) EUB0000639a MAPK7; type: subcellular; conditions: lysate
# [9] = target: Tyrosine-protein kinase Fes/Fps (Homo sapiens) (UniProt P07332); assay: Selectivity interaction (KinomeScan (DiscoverX)) EUB0000655a FES; conditions: at 10 µM
# Tyrosine-protein kinase Fes/Fps (Homo sapiens), sequence (P07332 whole entry): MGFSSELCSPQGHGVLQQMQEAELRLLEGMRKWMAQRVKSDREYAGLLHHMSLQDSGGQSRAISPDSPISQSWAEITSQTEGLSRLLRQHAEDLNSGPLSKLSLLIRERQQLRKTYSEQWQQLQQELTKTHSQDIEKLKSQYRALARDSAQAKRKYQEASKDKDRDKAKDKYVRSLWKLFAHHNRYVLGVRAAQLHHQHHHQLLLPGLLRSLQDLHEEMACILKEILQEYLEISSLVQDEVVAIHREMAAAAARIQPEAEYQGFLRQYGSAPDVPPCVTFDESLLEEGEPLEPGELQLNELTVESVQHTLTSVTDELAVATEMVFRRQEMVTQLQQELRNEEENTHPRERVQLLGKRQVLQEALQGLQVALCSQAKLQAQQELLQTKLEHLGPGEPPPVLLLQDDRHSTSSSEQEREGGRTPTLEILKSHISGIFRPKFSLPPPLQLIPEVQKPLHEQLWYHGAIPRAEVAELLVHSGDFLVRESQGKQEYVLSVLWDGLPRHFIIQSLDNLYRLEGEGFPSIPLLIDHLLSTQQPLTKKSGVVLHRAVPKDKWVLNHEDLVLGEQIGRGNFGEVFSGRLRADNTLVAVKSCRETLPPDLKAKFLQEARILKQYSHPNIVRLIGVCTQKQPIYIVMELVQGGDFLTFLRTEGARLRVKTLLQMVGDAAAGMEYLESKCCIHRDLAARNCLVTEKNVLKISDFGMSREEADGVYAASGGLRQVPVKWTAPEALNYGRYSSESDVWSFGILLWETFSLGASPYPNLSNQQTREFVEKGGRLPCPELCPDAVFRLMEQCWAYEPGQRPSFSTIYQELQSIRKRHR
# Mitogen-activated protein kinase 7 (Homo sapiens), sequence (Q13164 2-816 limits assumed): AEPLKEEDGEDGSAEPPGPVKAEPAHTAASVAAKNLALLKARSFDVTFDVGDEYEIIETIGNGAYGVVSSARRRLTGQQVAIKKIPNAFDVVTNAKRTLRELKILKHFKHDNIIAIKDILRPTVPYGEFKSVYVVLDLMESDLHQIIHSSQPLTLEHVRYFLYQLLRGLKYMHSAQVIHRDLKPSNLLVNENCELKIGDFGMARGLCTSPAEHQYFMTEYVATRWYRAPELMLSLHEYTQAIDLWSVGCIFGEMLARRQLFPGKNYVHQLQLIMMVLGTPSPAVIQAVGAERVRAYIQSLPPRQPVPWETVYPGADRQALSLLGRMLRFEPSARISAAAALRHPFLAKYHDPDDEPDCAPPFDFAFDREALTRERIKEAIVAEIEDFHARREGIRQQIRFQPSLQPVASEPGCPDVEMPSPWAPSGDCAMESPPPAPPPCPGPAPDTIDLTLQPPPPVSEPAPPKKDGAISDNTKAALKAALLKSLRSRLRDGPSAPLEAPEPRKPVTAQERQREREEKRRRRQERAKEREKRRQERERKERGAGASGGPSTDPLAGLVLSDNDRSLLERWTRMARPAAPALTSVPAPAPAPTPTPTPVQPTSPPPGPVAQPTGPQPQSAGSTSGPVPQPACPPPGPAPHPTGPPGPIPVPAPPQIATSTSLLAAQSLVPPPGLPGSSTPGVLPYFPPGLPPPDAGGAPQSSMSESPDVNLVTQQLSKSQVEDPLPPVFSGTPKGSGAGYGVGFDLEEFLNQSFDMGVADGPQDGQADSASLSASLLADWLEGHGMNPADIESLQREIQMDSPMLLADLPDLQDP
# MAP/microtubule affinity-regulating kinase 3 (Homo sapiens), sequence (P27448 whole entry, looked up): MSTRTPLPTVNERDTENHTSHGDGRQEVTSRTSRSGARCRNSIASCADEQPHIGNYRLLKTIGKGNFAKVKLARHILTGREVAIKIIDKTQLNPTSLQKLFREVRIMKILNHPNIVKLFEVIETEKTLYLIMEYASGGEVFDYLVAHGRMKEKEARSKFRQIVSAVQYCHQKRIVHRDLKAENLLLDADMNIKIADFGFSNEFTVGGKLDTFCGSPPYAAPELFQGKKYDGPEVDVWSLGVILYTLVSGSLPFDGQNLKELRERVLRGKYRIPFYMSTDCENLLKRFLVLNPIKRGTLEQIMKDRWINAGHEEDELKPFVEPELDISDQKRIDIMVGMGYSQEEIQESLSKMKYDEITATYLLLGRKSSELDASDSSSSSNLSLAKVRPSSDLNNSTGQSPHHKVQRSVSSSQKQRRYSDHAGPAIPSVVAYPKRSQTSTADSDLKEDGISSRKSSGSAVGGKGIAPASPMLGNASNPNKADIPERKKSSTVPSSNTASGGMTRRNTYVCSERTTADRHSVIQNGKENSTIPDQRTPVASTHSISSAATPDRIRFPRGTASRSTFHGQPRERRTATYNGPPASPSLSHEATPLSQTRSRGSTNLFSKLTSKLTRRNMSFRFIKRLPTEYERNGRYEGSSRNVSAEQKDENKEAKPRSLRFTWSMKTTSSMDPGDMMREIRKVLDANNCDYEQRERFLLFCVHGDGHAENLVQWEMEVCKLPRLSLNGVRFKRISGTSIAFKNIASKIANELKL
# Calcium/calmodulin-dependent protein kinase type 1G (Homo sapiens), sequence (Q96NX5 whole entry): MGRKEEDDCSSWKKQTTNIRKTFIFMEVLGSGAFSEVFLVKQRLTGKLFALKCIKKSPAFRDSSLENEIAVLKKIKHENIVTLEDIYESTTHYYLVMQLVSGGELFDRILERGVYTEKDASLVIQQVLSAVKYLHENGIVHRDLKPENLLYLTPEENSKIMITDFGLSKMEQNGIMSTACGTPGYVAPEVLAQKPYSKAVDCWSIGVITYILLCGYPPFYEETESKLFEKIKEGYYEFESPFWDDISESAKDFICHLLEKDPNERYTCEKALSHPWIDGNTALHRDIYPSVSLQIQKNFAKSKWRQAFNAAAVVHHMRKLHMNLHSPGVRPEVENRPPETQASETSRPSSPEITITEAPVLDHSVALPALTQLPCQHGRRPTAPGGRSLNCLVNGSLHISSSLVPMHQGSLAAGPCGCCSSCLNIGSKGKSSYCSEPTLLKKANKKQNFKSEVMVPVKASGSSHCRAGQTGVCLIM
# Calcium/calmodulin-dependent protein kinase type II subunit beta (Homo sapiens), sequence (Q13554 whole entry): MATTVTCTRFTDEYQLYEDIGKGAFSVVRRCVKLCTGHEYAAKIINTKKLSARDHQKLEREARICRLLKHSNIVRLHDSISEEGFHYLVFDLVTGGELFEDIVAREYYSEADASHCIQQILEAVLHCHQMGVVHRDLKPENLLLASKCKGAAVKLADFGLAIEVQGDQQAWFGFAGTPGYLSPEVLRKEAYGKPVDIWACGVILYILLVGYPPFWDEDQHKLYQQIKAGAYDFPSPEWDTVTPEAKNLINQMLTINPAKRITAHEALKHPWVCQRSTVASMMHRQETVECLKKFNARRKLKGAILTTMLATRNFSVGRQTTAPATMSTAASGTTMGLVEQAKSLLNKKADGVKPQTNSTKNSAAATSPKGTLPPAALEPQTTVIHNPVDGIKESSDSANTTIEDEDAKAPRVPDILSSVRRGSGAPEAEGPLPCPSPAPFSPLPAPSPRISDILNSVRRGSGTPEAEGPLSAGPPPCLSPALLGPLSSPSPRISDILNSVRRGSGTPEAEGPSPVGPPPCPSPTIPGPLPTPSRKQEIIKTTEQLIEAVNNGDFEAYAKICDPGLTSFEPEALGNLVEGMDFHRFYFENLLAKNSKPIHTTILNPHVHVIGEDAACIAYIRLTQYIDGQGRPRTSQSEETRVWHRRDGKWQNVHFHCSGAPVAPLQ
# Tyrosine-protein kinase ABL1 (Homo sapiens), P00519 [F317L], sequence (P00519 whole entry F317L): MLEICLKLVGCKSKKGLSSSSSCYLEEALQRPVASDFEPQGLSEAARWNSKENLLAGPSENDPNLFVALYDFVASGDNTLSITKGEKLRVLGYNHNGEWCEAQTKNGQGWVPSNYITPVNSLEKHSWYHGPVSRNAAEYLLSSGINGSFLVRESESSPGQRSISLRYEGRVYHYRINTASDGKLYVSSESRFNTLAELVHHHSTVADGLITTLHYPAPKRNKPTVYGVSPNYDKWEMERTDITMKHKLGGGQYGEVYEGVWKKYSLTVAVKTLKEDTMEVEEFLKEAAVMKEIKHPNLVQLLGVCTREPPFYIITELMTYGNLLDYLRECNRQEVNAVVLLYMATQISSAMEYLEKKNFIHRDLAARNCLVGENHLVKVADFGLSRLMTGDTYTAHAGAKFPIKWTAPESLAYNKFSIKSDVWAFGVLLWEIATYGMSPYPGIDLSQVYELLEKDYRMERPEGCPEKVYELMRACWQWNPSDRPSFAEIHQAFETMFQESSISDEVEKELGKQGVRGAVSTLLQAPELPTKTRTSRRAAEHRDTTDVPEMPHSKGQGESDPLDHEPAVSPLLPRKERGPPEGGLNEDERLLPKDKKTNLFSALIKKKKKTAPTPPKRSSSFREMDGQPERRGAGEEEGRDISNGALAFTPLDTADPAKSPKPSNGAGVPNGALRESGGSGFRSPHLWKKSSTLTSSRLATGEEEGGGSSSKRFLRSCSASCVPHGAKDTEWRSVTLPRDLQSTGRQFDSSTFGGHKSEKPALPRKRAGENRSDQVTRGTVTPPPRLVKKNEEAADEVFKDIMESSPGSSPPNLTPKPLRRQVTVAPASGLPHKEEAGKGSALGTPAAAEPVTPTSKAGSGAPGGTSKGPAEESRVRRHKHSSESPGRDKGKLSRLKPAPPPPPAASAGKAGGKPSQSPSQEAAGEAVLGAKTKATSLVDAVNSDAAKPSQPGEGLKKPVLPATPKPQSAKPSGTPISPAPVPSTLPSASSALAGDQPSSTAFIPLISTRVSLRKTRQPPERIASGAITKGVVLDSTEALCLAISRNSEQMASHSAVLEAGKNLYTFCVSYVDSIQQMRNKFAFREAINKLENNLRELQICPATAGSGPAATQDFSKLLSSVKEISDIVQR
smiles,measurement,setting,value
C=CC(=O)Nc1cc(-n2c(=O)ccc3cnc4ccc(-c5ccc(NS(C)(=O)=O)cc5)cc4c32)ccc1C,% of control,[1]; at 1 µM,75%
same,% of control,[1]; at 10 µM,97%
same,% of control,[2],75%
Cc1cc(F)c(C(=O)Nc2cccc(-c3nncn3C(C)C)n2)cc1-n1cnc(C2CC2)c1,% of control,[3],78%
COCCN1CCC(c2cc(CN(C)C(=O)c3cccc(Oc4ccccc4)c3)ccn2)CC1,IC50,[4],> 3 nM
CNC(=O)Nc1ccc(-c2nc(N3CC4CCC(C3)O4)c3cnn(C4CCC5(CC4)OCCO5)c3n2)cc1,% of control,[5],100%
CC[C@@H]1[C@H](F)C(=O)N[C@@H]1COc1nccc2cc(C(N)=O)c(OC)cc12 [ZIMLOVISERTIB],% of inhibition,[6],1.4%
same,% of inhibition,[7],56.9%
same,% of inhibition,[8]; at 0.01 µM,-4.2%
same,% of inhibition,[8]; at 0.04 µM,1.9%
same,% of inhibition,[8]; at 0.2 µM,-8.8%
same,% of inhibition,[8]; at 1 µM,-11.9%
same,% of inhibition,[8]; at 5 µM,15.7%
CN(C)CCOc1ccc(-c2nc(-c3ccncc3)c(-c3ccc4c(c3)CC/C4=N\O)[nH]2)cc1,% of control,[9],100%
